# Measurements as given in patent US7807176B2, “Polypeptide promoting vascular endothelial cell growth” (Genomidea, Inc., priority 2004, dated 2010).
# What was measured:
# [1] = system: phosphatidyl inositol-3-kinase/Akt (PI3K/Akt); details: according to a previous study; cited from earlier work
# [2] = system: tube formation; experiment: Tube formation, Kurabo Angiogenesis kit with CD31 staining and image quantification; assay type: cell-based, human; details: for Area (% increase): Example 5, Table 4; for Length (% increase): Example 5, Table 5; for tube Area % Increase / tube Length % Increase: Table 2
# Procedure: Using a Kurabo Angiogenesis kit (KZ-1000, Kurabo Industries Ltd.), tube formation was examined. A blank, vascular endothelial growth factor-A protein (VEGF-A), pVEGF plasmid (plasmid containing a gene encoding vascular endothelial growth factor), and pSPORT1 (a plasmid not containing a gene encoding vascular endothelial growth factor) were used as controls. […]
# Culture was carried out at 37° C. in a 5% CO2 incubator. The medium was exchanged on the 4th, 7th and 9th days of culture with a fresh medium containing the same additives.
# CD31 (PECAM-1) staining primary antibody (mouse anti-human CD31 antibody) was diluted 4,000-fold with a blocking solution (Dulbecco's phosphate buffer solution (PBS(−)) containing 1% BSA). 0.5 ml of this primary antibody solution was added to each well and incubated for 60 minutes at 37° C. After incubation was finished, each well was washed 3 times with 1 ml blocking solution.
# Then, 0.5 ml of a secondary antibody (goat anti-mouse IgG/alkali phosphatase conjugate) solution, diluted 500-fold with the blocking solution, was added to each well and incubated for 60 minutes at 37° C., and each well was washed 3 times with 1 ml distilled water. Separately, 2 tablets of BCIP/NBT were dissolved in 20 ml distilled water and filtered through a filter with a pore size of 0.2 μm, to prepare a substrate solution. 0.5 ml of the prepared BCIP/NBT substrate solution was added to each well and incubated at 37° C. until the tube turned deep violet (usually in 5 to 10 minutes). After incubation was finished, each well was washed 3 times with 1 ml distilled water, followed by removing the washing solution using suction, and the plate was left to air-dry. After drying, each well was observed under a microscope.
# Each well was observed under a 40× magnification microscope and a photograph of each well was taken. An enlarged photograph with the scale of 1 mm magnified 40-fold was taken (FIG. 5).
# Each of the resulting images was quantified with angiogenesis quantification software (KSW-5000U, Kurabo Industries Ltd.) according to the following method. The area (left in FIG. 6) and length (right in FIG. 6) of tubes formed in each visual field were measured on the scale by computer analysis with various indicators. […]
# [3] = system: HAEC; experiment: MTS assay of endothelial cell proliferation with added peptide; assay type: cell-based, human; details: MTS, Table 3
# Procedure: F2 peptide was synthesized and then contacted in a varying amount with HAEC, and the ability thereof to proliferate the cells was examined by MTS assay. The MTS assay is a modification of the MTT assay, and is a method of measuring living cells based on a reaction of reducing tetrazolium salt (MTS) by living cells in culture, into a colored product formazan. Specifically, this assay is carried out as follows: • HAEC was inoculated onto a 96-well plate at a density of 750 cells/well. • 2 μl/well of each sample was added to 100 μl/well endothelial cell medium (1% FBS, without EGF). 2 μl/well was added every day (until Day 6) (the medium was not exchanged). • 20 μl measurement solution (Cell Titer 96 AQueous One Solution Cell Proliferation Assay (Promega)) was added to each well and mixed with 100 μl of the endothelial cell medium, and the old medium was removed by suction. A mixed suspension of the measurement solution and the cells was put in a volume of 120 μl/well and then incubated for 1 to 5 hours in a CO2 incubator. • The absorbance at 490 nm was measured with a plate reader.
# The sample group (8 wells each) is as follows: • NC: Only EBM medium (endothelial cell medium) containing 1% FBS. The other samples were cultured by adding various peptides to this medium containing serum. • VEGF-A: Recombinant VEGF-A (KURABO) was added at a final concentration of 10 ng/ml. • F2-1: F2 peptide was added at a final concentration of 1 ng/ml. • F2-10: F2 peptide was added at a final concentration of 10 ng/ml. • F2-100: F2 peptide was added at a final concentration of 100 ng/ml. • F2-1000: F2 peptide was added at a final concentration of 1000 ng/ml.
# [4] = system: ERK (extracellular signal-related kinase); details: according to a previous study; cited from earlier work
# [5] = system: HEAC endothelial cells; experiment: Endothelial cell migration, modified Boyden chamber; assay type: cell-based, human
# Procedure: A polyvinyl pyrrolidone (PVP)-free polycarbonate membrane having […] (Neuro Probe Inc., Gaithersburg, Md.) was coated overnight with 0.1% gelatin and then washed with phosphate buffered saline to remove an excess of the gelatin coating. Then, 28 μl growth factor-free EBM2 medium supplemented with 1% FBS was arranged in a lower chamber, and the membrane was arranged on the lower chamber. […] The Boyden chamber was incubated at 37° C. for 4 hours. After incubation, the membrane was removed and the cells on the upper side of the membrane were removed. The cells on the lower side of the membrane were stained with Diff-Quick (Sysmex, Hyogo Pref., JP). The cells in each of randomly selected 8 visual fields (×100) were counted.
# [6] = system: c-fos promoter; experiment: c-fos promoter assay (c-fos-Luci luciferase); assay type: cell-based, bovine
# Procedure: To further confirm the proliferation ability, an assay using a promoter of proto-oncogene c-fos, which is activated in the earliest stage of cell proliferation, was carried out. The gene c-fos-Luci having luciferase ligated under this promoter, and a candidate gene, were introduced in a weight ratio of 1:1 by lipofection into bovine vascular endothelial cells, and after 24 to 48 hours, the luciferase activity was measured.
# [7] = system: human aortic endothelial cells (HAEC); experiment: Cell proliferation assay after gene transfer into HAEC (Cell Titer 96); assay type: cell-based; details: HAEC as host cell; FIG. 4
# Procedure: A human heart cDNA library (a plasmid having human heart-derived cDNA ligated to plasmid pSPORT having a CMV promoter; GIBCO BRL) was introduced into E. coli DH12S, and the plasmid prepared from the E. coli. 200 μg of the plasmid was encapsulated in 10000 HAU of the HVJ-E gene-transfer vector (the gene-transfer vector, 3×10^9 particles, prepared in Example 2 in the present invention). As host cells, human aortic endothelial cells HEAC (Sanko Junyaku Co., Ltd.), about 5000 cells, were added together with medium to each well of a 96-well microtiter plate, then cultured overnight and used. 1/100 of the HVJ-E was added to each well containing the host cells, and then left at 37° C. for 30 minutes, followed by exchanging the medium. […]
# After2 weeks, a cell proliferation assay was carried out. Using Cell Titer 96 (Promega) as a reagent, the oxidoreduction of mitochondria was measured as a change in the color of the reagent and used as an indicator of cell growth. […]
# Each of nine clones having the insert was encapsulated respectively in HVJ-E and subjected to a second screening, and as a result, a gene showing a high proliferation activity was obtained. […] The gene c-fos-Luci having luciferase ligated under this promoter, and a candidate gene, were introduced in a weight ratio of 1:1 by lipofection into bovine vascular endothelial cells, and after 24 to 48 hours, the luciferase activity was measured. […]
# [8] = system: VEGF promoter; experiment: VEGF promoter assay (luciferase gene ligated to VEGF promoter); assay type: cell-based, bovine; details: FIG. 3 right graph
# [9] = system: human vascular smooth muscle cell (VSMC); experiment: Cell proliferation after gene transfer into VSMC; assay type: cell-based; details: FIG. 4
substance,measurement,setting,value
"LL-37 peptide: peptide having antimicrobial activity, angiogenesis activity and artery-forming activity; rich in arginine, α-helix structure [reference compound]",effect on PI3K/Akt activity,[1],increased rapidly
same,Area (% increase),[2]; 1 μg/ml,70.1%
same,Length (% increase),[2]; 1 μg/ml,60.9%
same,Area (% increase),[2]; 10 μg/ml,43%
same,Length (% increase),[2]; 10 μg/ml,28%
same,endothelial proliferation Increase [times],[3]; 100 ng/ml,1.279 times
same,endothelial proliferation Increase [times],[3]; 1 μg/ml,1.361 times
same,effect on ERK activity,[4],increased rapidly
RSLEGTDRFPFVRLKNSRKLEFKDIKGIKR (CONTROL PEPTIDE) [reference compound],tube Area % Increase,[2]; 1 μg/ml,−12%
same,tube Length % Increase,[2]; 1 μg/ml,−11%
same,tube Area % Increase,[2]; 10 μg/ml,−9%
same,tube Length % Increase,[2]; 10 μg/ml,−3%
same,migration % Increase,"[5]; 1 μg/ml, 4 hours",−10.1%
same,cell migration activity (in words),"[5]; F2 0.01 to 1 μg/ml, control peptide 1 μg/ml, VEGF 50 ng/ml, FIG. 10",not observed
"f1: gene fragment, nucleotide sequence No. 2764-3073 in the frame of SART-2, ligated with expression vector pCDNA3.1",activity in c-fos promoter assay of gene fragments in pCDNA3.1,[6]; FIG. 8,no activity
p3743: gene clone (plasmid) from a human heart cDNA library; insert is nucleotide sequence No. 2364-3958 in SART-2,proliferation ability in HAEC after gene introduction,[7],higher proliferation ability than HGF
same,area and length of the formed tubes,"[2]; supernatant of HAEC into which the gene had been introduced, FIG. 6",significantly greater
same,"activation of the VEGF promoter, compared with VEGF",[8],higher activation of the VEGF promoter than by VEGF
same,proliferation activity in human vascular smooth muscle cells after gene introduction,[9],"same as that of the negative control, GFP"
same,"ability to activate the c-fos promoter, compared with VEGF",[6]; FIG. 3 left graph,higher ability to activate the c-fos promoter than VEGF
same,"luciferase activity (activation of c-fos promoter), compared with HGF","[6]; candidate gene and c-fos-Luci 1:1 by lipofection, bovine vascular endothelial cells, after 24 to 48 hours, FIG. 2",higher luciferase activity than HGF
